Activity calls are given as the source filed them. No cut-off for these calls is given here. Bounds are passed on as bounds.

The target of assay [1] is Phosphatidylinositol 4,5-bisphosphate 3-kinase catalytic subunit alpha isoform (Homo sapiens, UniProt P42336). Kind of assay: Inhibition of PI3Kalpha by luminescent kinase assay.
Assay [2] has as its target Mast/stem cell growth factor receptor Kit (Homo sapiens) (UniProt P10721). Kind of assay: Inhibition of c-Kit at 10 uM.
The target in assay [3] is Platelet-derived growth factor receptor alpha (Homo sapiens) (UniProt P16234). In words: Inhibition of PDGFRalpha at 10 uM.
Platelet-derived growth factor receptor alpha (Homo sapiens), sequence (P16234 whole entry): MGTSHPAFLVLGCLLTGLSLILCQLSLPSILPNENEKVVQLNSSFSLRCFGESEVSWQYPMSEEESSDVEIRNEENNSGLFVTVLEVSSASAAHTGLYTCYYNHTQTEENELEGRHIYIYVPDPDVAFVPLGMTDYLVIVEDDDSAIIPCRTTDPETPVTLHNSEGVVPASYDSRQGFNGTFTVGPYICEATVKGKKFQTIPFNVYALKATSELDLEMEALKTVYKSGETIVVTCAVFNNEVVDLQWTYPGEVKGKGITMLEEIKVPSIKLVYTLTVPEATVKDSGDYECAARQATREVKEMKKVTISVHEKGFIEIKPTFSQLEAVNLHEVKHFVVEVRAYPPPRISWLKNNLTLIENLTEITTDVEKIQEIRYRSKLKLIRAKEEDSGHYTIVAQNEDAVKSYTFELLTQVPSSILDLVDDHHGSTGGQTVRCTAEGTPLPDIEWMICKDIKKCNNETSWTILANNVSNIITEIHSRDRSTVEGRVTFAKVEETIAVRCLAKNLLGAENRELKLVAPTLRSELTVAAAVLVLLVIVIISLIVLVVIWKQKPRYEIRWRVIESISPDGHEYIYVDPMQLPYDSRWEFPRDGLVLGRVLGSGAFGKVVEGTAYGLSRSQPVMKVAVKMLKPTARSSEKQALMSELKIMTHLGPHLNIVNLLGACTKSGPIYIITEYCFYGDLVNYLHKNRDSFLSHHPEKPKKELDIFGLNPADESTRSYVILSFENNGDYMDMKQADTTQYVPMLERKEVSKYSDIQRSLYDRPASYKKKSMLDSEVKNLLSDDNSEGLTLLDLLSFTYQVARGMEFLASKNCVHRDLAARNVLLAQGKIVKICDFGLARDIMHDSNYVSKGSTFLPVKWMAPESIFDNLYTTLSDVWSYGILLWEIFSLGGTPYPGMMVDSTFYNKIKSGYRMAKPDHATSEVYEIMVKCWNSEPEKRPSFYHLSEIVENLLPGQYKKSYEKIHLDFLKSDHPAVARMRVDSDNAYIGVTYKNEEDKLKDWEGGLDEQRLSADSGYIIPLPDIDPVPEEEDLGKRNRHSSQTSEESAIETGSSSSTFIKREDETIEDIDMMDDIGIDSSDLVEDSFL
Assay [4] addresses Platelet-derived growth factor receptor beta (Homo sapiens) (UniProt P09619). In words: Inhibition of PDGFRbeta at 10 uM.
Assay [5] deals with Proto-oncogene tyrosine-protein kinase receptor Ret (Homo sapiens) (UniProt P07949). Kind of assay: Inhibition of RET at 10 uM.
Assay [6] addresses Receptor tyrosine-protein kinase erbB-2 (Homo sapiens) (UniProt P04626). In words: Inhibition of ErbB2 at 10 uM.
Assay [7] has as its target T1, Ephrin type-B receptor 2 (Homo sapiens) (UniProt P29323).
T1 sequence (whole entry): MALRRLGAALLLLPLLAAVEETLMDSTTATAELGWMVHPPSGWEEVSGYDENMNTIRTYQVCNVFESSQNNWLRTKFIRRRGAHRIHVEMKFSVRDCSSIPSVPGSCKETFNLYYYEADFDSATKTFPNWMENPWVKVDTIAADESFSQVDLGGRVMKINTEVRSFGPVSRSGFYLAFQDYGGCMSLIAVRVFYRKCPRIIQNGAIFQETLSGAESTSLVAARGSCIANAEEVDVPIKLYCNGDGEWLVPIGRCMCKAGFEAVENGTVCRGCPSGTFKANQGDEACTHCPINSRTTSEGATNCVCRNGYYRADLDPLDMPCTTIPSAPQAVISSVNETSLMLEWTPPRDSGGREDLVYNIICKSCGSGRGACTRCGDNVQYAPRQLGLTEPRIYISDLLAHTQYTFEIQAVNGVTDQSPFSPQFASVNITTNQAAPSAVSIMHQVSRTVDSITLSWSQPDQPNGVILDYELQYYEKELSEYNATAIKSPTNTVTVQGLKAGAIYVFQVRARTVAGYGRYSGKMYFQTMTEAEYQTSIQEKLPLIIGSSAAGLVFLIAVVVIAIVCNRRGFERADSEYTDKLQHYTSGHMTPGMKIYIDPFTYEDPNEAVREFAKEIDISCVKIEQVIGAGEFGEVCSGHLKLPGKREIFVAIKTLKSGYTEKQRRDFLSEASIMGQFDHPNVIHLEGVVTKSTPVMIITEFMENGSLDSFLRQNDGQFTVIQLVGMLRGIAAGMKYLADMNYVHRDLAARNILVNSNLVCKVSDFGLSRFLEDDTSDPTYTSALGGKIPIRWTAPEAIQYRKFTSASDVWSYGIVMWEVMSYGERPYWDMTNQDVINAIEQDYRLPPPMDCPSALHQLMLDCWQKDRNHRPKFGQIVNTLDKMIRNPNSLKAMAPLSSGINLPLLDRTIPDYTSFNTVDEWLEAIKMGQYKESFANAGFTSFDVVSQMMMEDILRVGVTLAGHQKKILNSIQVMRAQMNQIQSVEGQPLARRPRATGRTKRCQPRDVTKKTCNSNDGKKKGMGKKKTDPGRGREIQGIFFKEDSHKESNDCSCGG
Kind of assay: Inhibition of EPH-B2 at 10 uM.

Assay [8] concerns the target Hepatocyte growth factor receptor (Homo sapiens) (UniProt P08581). In words: Inhibition of c-Met at 10 uM.
For assay [9], the target named is Macrophage-stimulating protein receptor (Homo sapiens) (UniProt Q04912). In words: Inhibition of RON at 10 uM.
Assay [10] addresses Insulin-like growth factor 1 receptor (Homo sapiens) (UniProt P08069). Kind of assay: Inhibition of IGF1R at 10 uM.
Assay [11] in a line: Inhibition of PI3K-mediated Akt phosphorylation at Ser473 at 3 uM by Western blot analysis.
Assay [12] can be described thus: Inhibition of PI3K-mediated p70S6K1 phosphorylation at Thr389 at 3 uM by Western blot analysis.
Another assay deals with ECV-304. Kind of assay: Antiproliferative activity against human ECV304 cells. The class given is functional, cell-based.
A further assay concerns MCF7. Kind of assay: Antiproliferative activity against human MCF7 cells. The class given is functional, cell-based.
A further assay relates to HT-29. Kind of assay: Antiproliferative activity against human HT-29 cells. The class given is functional, cell-based.
Assay [13] can be described thus: Cell cycle arrest in human Rh30 cells assessed as increase in G1 cell population at 1 to 10 uM by flow cytometric analysis. The class given is functional, cell-based. The following applies: SJRH30. In general terms: Flow cytometry measures light scatter and fluorescence of single cells or particles in a stream.
Assay [14] in a line: Cell cycle arrest in human Rh30 cells assessed as increase in subG1 cell phase at 10 uM by flow cytometric analysis. The note with it: SJRH30. The class given is functional, cell-based.
Assay [15] is described as follows: Inhibition of PI3K-mediated Akt pathway by Western blot analysis. (In general: A western blot detects proteins with antibodies after separation by electrophoresis.)
Assay [16] in a line: Inhibition of PI3K-mediated mTOR pathway by Western blot analysis.
Assay [17] addresses Vascular endothelial growth factor receptor 2 (Homo sapiens) (UniProt P35968). The note with it: at 10 µM.
Description: Inhibition of KDR at 10 uM
The target of assay [18] is Epidermal growth factor receptor (Homo sapiens) (UniProt P00533). The note with it: at 10 µM.
Description: Inhibition of EGFR at 10 uM
In assay [19] the target is Proto-oncogene tyrosine-protein kinase Src (Homo sapiens) (UniProt P12931). The following applies: at 10 µM.
Description: Inhibition of c-Src at 10 uM
The nature of assay [20]: Antiproliferative activity against human BEL-7402 cells.

Platelet-derived growth factor receptor beta (Homo sapiens), sequence (P09619 whole entry): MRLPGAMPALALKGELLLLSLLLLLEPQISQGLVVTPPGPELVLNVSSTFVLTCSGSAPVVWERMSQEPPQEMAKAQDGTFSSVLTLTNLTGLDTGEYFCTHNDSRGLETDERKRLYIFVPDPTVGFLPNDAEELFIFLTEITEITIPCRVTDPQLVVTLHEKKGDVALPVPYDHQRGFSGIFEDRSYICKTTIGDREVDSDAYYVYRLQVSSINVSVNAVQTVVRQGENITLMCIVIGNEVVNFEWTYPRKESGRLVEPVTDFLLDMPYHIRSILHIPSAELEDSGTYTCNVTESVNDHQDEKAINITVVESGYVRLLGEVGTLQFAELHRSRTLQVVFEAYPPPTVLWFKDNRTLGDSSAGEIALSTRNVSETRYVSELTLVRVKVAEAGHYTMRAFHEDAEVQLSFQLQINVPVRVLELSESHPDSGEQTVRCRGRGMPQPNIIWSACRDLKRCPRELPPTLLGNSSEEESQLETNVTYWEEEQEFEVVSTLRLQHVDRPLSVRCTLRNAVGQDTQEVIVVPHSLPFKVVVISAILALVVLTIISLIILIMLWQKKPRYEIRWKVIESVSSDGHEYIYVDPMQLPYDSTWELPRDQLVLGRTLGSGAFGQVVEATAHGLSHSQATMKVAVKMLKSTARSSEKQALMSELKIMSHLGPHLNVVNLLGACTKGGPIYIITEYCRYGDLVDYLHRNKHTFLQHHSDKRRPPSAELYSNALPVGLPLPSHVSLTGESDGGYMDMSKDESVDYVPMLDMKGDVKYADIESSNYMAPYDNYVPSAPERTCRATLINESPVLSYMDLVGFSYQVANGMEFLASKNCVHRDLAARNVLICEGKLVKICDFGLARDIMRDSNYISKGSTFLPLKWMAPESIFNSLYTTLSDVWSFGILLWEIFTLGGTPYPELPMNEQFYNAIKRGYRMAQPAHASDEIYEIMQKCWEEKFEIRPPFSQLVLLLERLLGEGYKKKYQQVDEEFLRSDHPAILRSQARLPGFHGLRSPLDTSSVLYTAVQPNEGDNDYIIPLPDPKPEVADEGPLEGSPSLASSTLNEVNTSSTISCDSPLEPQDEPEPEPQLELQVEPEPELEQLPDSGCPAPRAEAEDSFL
Hepatocyte growth factor receptor (Homo sapiens), sequence (P08581 whole entry): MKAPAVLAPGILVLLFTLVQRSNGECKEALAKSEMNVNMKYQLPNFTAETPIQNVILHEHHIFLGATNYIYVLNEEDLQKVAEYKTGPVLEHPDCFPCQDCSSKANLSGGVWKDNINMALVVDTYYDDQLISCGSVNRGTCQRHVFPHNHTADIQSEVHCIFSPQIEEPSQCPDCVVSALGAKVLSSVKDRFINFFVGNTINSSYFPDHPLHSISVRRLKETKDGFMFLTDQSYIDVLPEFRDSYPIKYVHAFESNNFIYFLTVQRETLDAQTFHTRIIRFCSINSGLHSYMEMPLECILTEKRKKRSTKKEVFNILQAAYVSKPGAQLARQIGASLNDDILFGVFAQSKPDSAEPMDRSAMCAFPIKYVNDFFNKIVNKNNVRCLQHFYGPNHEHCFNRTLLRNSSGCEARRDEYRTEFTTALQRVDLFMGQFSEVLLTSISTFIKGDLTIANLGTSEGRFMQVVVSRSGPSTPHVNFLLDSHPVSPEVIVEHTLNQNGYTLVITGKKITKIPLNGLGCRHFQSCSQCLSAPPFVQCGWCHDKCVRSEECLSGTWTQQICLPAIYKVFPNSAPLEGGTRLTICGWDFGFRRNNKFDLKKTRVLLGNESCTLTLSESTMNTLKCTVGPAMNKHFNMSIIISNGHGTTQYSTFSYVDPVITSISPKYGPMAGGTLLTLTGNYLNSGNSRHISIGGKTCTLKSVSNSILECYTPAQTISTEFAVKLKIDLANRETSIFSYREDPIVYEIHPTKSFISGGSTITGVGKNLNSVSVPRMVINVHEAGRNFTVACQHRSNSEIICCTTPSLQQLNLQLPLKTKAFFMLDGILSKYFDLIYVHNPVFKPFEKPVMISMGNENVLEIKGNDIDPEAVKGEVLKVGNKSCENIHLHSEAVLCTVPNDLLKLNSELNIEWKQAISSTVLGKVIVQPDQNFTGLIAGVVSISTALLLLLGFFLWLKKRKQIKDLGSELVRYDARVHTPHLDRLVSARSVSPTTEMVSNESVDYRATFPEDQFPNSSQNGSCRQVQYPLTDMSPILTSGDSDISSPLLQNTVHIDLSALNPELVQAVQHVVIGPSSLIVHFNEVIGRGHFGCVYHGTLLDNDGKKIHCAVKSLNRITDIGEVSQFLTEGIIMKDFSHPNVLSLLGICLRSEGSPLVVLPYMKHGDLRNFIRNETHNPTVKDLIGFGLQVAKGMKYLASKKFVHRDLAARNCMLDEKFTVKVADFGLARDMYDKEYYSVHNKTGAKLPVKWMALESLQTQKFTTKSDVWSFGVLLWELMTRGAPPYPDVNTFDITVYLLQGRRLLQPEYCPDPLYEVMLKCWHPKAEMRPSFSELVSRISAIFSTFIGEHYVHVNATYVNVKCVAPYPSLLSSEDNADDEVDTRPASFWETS
Phosphatidylinositol 4,5-bisphosphate 3-kinase catalytic subunit alpha isoform, sequence (P42336 whole entry, canonical isoform): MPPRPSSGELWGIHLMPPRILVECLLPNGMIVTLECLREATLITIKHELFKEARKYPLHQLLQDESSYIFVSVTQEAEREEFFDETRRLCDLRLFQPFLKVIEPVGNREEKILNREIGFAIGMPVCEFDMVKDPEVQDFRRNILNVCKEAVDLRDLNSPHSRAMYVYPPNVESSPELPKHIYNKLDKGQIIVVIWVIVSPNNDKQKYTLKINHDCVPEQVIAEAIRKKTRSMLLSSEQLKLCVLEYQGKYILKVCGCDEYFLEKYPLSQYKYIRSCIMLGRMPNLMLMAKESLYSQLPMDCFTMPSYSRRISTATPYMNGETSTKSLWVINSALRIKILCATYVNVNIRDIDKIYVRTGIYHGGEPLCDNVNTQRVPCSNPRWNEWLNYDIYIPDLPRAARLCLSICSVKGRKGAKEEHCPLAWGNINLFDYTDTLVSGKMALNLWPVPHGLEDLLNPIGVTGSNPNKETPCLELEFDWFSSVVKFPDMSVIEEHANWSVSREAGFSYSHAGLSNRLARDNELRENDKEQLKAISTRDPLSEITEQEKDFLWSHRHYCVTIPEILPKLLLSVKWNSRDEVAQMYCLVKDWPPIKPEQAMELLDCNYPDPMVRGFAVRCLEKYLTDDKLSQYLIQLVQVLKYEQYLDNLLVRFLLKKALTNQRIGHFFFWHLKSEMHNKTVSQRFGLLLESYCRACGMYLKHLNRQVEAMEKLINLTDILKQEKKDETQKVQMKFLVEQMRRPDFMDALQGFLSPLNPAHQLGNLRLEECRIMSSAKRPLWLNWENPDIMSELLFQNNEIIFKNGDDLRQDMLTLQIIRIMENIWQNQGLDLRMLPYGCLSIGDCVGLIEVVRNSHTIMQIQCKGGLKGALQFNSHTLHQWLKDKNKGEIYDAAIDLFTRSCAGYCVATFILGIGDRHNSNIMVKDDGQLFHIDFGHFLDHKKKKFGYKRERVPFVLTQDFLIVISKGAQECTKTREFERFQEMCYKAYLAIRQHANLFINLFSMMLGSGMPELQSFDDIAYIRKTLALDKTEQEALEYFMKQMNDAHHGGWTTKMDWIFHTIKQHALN

With `CC(=O)Oc1cccc(-c2nc(N3CCOCC3)c3cc4ncccc4n3n2)c1`, the 50% inhibitory concentration (IC50) is 0.0497 µM in assay [1]; 3.8 µM in the assay on ECV-304; 14.4 µM in the assay with MCF7; above 50 µM in the assay with HT-29; 12.1 µM in assay [20]. The inhibition is 24.7% in assay [2]; 21.8% in [3]; 0% in assay [4]; 19% in assay [5]; 7.1% in assay [6]; 37.2% in assay [7]. For the same compound, the inhibition turned out to be 29% in assay [8]; 9.4% in [9]; 33.4% in [10]; 23.1% in assay [17]; 4.6% in assay [18]; 40% in [19]. The inhibition entry in [11] and in assay [12] was “Active” throughout. For the same compound, the result in [13] and in assay [14] was Active. Besides, the “Akt pathway inhibition (qualitative)” value in assay [15] is “Dose-dependent effect”. Also, the “mTOR pathway inhibition (qualitative)” value in [16] is “Dose-dependent effect”.
As for `CCCC(=O)Oc1cccc(-c2nc(N3CCOCC3)c3cc4ncccc4n3n2)c1`, the 50% inhibitory concentration (IC50) turned out to be 0.511 µM in [1]; 1.4 µM in the assay with ECV-304; 6.1 µM with MCF7; 16.4 µM in the assay with HT-29; 3.6 µM in assay [20]. For the same compound, the inhibition came out at 25.4% in [2]; 14% in assay [3]; 5.1% in assay [4]; 25.8% in assay [5]; 12.5% in [6]; 53% in assay [7]. Further, the inhibition in assay [8] amounted to 33.9%; in assay [9], 7.4%; in [10] it was 15.6%; in assay [17], 25.6%; in assay [18], 16%; in [19], 48.2%. Besides, the inhibition result in assay [11] and in assay [12] was “Active” throughout. Moreover, the result in assay [13] and in [14] was Active. The “Akt pathway inhibition (qualitative)” value in [15] is “Dose-dependent effect”. Further, the “mTOR pathway inhibition (qualitative)” value in assay [16] was “Dose-dependent effect”.
With `CCC(=O)Oc1cccc(-c2nc(N3CCOCC3)c3cc4ncccc4n3n2)c1`, the IC50 in assay [1] stood at 0.544 µM; in the assay with ECV-304 it was 4 µM; with MCF7, 18.7 µM; in the assay on HT-29, 30.4 µM; in [20] it was 8.6 µM. The inhibition in [2] was found to be 29%; in assay [3], 13%; in [4] it was 11.8%; in [5], 43%; in assay [6], 12.5%; in assay [7], 48.6%. The inhibition in assay [8] stood at 31.7%; in assay [9] it was 17.6%; in [10] it was 23.7%; in assay [17], 25%; in [18], 26.8%; in assay [19] it was 52.8%. For the same compound, the inhibition result in assay [11] and in assay [12] was “Active” each time. The result in assay [13] and in assay [14] was Active. Besides, the “Akt pathway inhibition (qualitative)” value in assay [15] was “Dose-dependent effect”. The “mTOR pathway inhibition (qualitative)” value in [16] was “Dose-dependent effect”.

What is called IC50 is the concentration that gives 50% inhibition. Higher therefore signals a need for much substance. The term inhibition denotes the percentage by which the read-out fell short of the control.

The values above are taken from ChEMBL document CHEMBL1933031, “Discovery and bioactivity of 4-(2-arylpyrido[3',2':3,4]pyrrolo[1,2-f][1,2,4]triazin-4-yl) morpholine derivatives as novel PI3K inhibitors” (Bioorg Med Chem Lett, 2012).
